Read-outs that look alike come from different tables or passages of the source.
Tests used:
[1] = test system: OVA sensitized, OVA challenged mice; assay: Airway hyperresponsiveness to methacholine (whole-body plethysmography), OVA mouse model of asthma; format: in vivo, BALB/c mice; details: for AHR to Mch / lung function compared with dexamethasone: 10 mg/kg orally twice a day, DEX 0.75 mg/kg once a day; for MCh PC200 (AHR to methacholine): 0.05, 0.1, 5 and 10 mg/kg orally twice per day
Description: BALB/c mice (6-8 wks old, 18-22 grams) were obtained from IICB Kolkata and VPCI, Delhi. Ethical clearance has been obtained from Institutional Ethical Committee. Mice were acclimatized for at least one week under the laboratory conditions (25±2° C., 60% humidity) before starting the experiments. After one week, baseline Penh (enhanced pause) was measured in Buxco unrestrained single chamber plethysmography (WBP, Buxco, Troy, N.Y.).
Mice were sensitized with 0.2 ml PBS containing 50 μg ovalbumin (OVA) (Sigma, USA) and 4 mg aluminum hydroxide in saline intraperitonially (i.p.) on days 0, 7 and 14 as shown in FIG. 1. Sham group mice were sensitized with only alum dissolved in PBS. From day 18 to 27, mice were exposed to aerosol of OVA (3%) inhalation 25 minutes daily in a Plexiglas chamber (20×20×10 cm^3). The aerosol was generated by a nebulizer (OMRON CX model) with an airflow rate of 9 L/minute. Sham group mice were challenged with PBS alone.
Compound 1 of formula I was dissolved in 50% ethanol. So 50% ethanol was used as a vehicle. Group I was alum sensitized, saline challenged and treated with vehicle (SHAM/SAL/VEH), group II was OVA sensitized, OVA challenged and treated with 50% ethanol as vehicle (OVA/OVA/VEH), group III, IV, V, VI were OVA sensitized, OVA challenged and treated with 0.05, 0.1, 5 and 10 mg/kg compound 1 of formula I. Drug was given in the volume of 10 μl orally twice per day. Confirmatory experiments were done with two concentrations of compound 1 of formula I (5 and 10 mg/kg twice a day), and these findings were compared with parallel group of mice which were OVA-sensitized, -OVA challenged and treated orally once a day with 0.75 mg/kg Dexamethasone (OVA/OVA/DEX).
Airway responsiveness was measured by barometric plethysmography using whole-body plethysmography (WBP; Buxco, Troy, N.Y.) 12 hours after last saline or ovalbumin challenge. At the time of measurement the animals were awake and breathing spontaneously. Enhanced pause (Penh) to methacholine as measured using barometric plethysmography is a valid indicator of bronchoconstriction in mice and can be used to measure AHR (Am J Respir Crit Care Med 1997, 156, 766-775). Baseline Penh was taken initially, and then PBS followed by increasing concentrations (4-48 mg/ml) of methacholine was nebulized through an inlet of the main chamber for 3 min. Readings were taken and averaged for 5 minutes from the starting time of nebulisation. Airway responsiveness to MCh was evaluated by the concentration of MCh required to increase the Penh to twice the baseline value (MCh PC200).

[2] = design: species or system mice; details: mouse, in vivo
Description: 14 d acute oral toxicity of compound 1 of formula I was performed. Three doses were selected: 47, 23, 12 and 0 mg/kg bw (Vehicle control) of compound 1 of formula I was administered by single oral gavage using blunt ended steel canula.
Before sacrifice, blood was drawn from the retro-orbital sinus of mice and rats with the help of non-heparinised capillary tubes and hematological parameters were assessed with the help of Automatic Hematology Analyzer (Medonic).

[3] = 14 d acute oral toxicity: immunotoxicity (EPA guideline 1998); format: in vivo, mice; details: for Bone marrow cell viability % / Lymph node lymphocyte viability % (pooled) / Splenocyte viability %: 14 d acute
Description: 14 d acute oral toxicity of compound 1 of formula I was performed. […]
Immunotoxicity in mice was performed in accordance to EPA guideline (1998). […] Humoral immunity was measured in terms of HA titer and plaque forming cell assay. […] Cell mediated immunity was measured in terms of % increase in paw volume in mice sensitized with SRBC.

[4] = listed as compound of formula I

Compound: C=CCc1ccc(O)c(O)c1 [Compound 1, 4-allyl-benzene-1,2-diol]
- AHR to Mch / lung function compared with dexamethasone [1]: able to improve lung function almost similar to the level of dexamethasone
- AHR to Mch / lung function compared with dexamethasone [1, 4]: significantly reduced the AHR to Mch as effective as DEX
- MCh PC200 (AHR to methacholine) [1]: increased in a dose dependent manner
- MCh PC200 (AHR to methacholine) [1, 4]: effective at higher concentrations
- GRAN ([2]; 12 mg/kg): 9.82 ± 3.49%
- HCT ([2]; 12 mg/kg): 39.72 ± 5.27%
- HGB ([2]; 12 mg/kg): 12.6 ± 2.50 g/dL
- LYMF ([2]; 12 mg/kg): 8.54 ± 14.39%
- MCV ([2]; 12 mg/kg): 41.76 ± 1.268 μm^3
- MPV ([2]; 12 mg/kg): 6.96 ± 0.33 μm^3
- PLT ([2]; 12 mg/kg): 588 ± 198 10^3/mm^3
- RBC ([2]; 12 mg/kg): 9.52 ± 1.313 ×10^6/mm^3
- WBC ([2]; 12 mg/kg): 9.1 ± 0.86 ×10^3/mm^3
- GRAN ([2]; 23 mg/kg): 10.8 ± 2.30%
- HCT ([2]; 23 mg/kg): 42.05 ± 7.86%
- HGB ([2]; 23 mg/kg): 13.22 ± 1.72 g/dL
- LYMF ([2]; 23 mg/kg): 2.12 ± 3.45%
- MCV ([2]; 23 mg/kg): 41.675 ± 2.069 μm^3
- MPV ([2]; 23 mg/kg): 6.95 ± 0.36 μm^3
- PLT ([2]; 23 mg/kg): 518 ± 40 10^3/mm^3
- RBC ([2]; 23 mg/kg): 10.05 ± 1.477 ×10^6/mm^3
- WBC ([2]; 23 mg/kg): 13.52 ± 2.71 ×10^3/mm^3
- GRAN ([2]; 47 mg/kg): 9.46 ± 2.33%
- HCT ([2]; 47 mg/kg): 39.12 ± 1.76%
- HGB ([2]; 47 mg/kg): 13.2 ± 0.65 g/dL
- LYMF ([2]; 47 mg/kg): 1.0 ± 0.87%
- MCV ([2]; 47 mg/kg): 40.45 ± 1.126 μm^3
- MPV ([2]; 47 mg/kg): 7.1 ± 0.32 μm^3
- PLT ([2]; 47 mg/kg): 476.5 ± 124^ 10^3/mm^3
- RBC ([2]; 47 mg/kg): 9.74 ± 0.749 ×10^6/mm^3
- WBC ([2]; 47 mg/kg): 11.02 ± 2.61 ×10^3/mm^3
- Bone marrow cell viability % ([3]; 12 mg/kg bw): >98%
- Lymph node lymphocyte viability % (pooled) ([3]; 12 mg/kg bw): >98%
- Splenocyte viability % ([3]; 12 mg/kg bw): 97.69 ± 0.96%
- Bone marrow cell viability % ([3]; 23 mg/kg bw): >98%
- Lymph node lymphocyte viability % (pooled) ([3]; 23 mg/kg bw): >98%
- Splenocyte viability % ([3]; 23 mg/kg bw): 97.64 ± 0.73%
- Bone marrow cell viability % ([3]; 47 mg/kg bw): >98%
- Lymph node lymphocyte viability % (pooled) ([3]; 47 mg/kg bw): >98%
- Splenocyte viability % ([3]; 47 mg/kg bw): 98.25 ± 0.92%
- DTH response (cell mediated immunity) ([3]; mouse, in vivo): insignificant changes in the DTH response
- viability of bone marrow cells, splenocyte and lymph node lymphocyte (trypan blue) ([3]; mouse, in vivo): No significant changes
- HA tire (reciprocal of the last dilution showing positive reaction) ([3]; mouse, in vivo, 12 mg/kg): 2560
- PFC ([3]; mouse, in vivo, 12 mg/kg): 10333 ± 3008 per 10^6lymphocytes
- PFC and HA titre against SRBC antigen ([3]; mouse, in vivo, 21 mg/kg): did not show any significant change
- DTH response (%) ([3]; mouse, in vivo, 23 mg/kg): 19.24 ± 10.5%
- HA tire (reciprocal of the last dilution showing positive reaction) ([3]; mouse, in vivo, 23 mg/kg): 2560
- PFC ([3]; mouse, in vivo, 23 mg/kg): 11633 ± 3636 per 10^6lymphocytes
- DTH response (%) ([3]; mouse, in vivo, 47 mg/kg): 17.75 ± 9.8%
- HA tire (reciprocal of the last dilution showing positive reaction) ([3]; mouse, in vivo, 47 mg/kg): 1280
- PFC ([3]; mouse, in vivo, 47 mg/kg): 2800 ± 1288 per 10^6lymphocytes

Source: patent publication US9302967B2, “Substituted cathechols as inhibitors of IL-4 and IL-5 for the treatment of bronchial asthma” (Council of Scientific & Industrial Research, priority 2011, dated 2016)
